# The source made the active and inactive calls. The rule behind the calls is not given here.
# Key:
# TZM-resistant GBM cell [1] = experiment: Disruption of DNA repair in patient-derived human TMZ-resistant GBM cells assessed as decrease in RAD51 level at 20 uM upto 80 hrs by Western blot analysis; type: functional, cell-based
# TZM-resistant GBM cell [2] = experiment: Disruption of DNA repair in patient-derived human TMZ-resistant GBM cells assessed as decrease in CtIP level at 20 uM upto 80 hrs by Western blot analysis; type: functional, cell-based
# [3] = Drug uptake in C57BL/6 mouse brain at 360 mg/kg, ip measured after 30 mins by UPLC analysis; type: ADME, organism-based; settings: in vivo, 0.5 h
# TZM-resistant GBM cell [4] = experiment: Antitumor activity against patient-derived human TMZ-resistant GBM cells implanted in C57BL/6 mouse assessed as inhibition of tumor cell growth in brain at 10 to 20 mg/kg administered on every 3 days measured for 60 days in presence of TMZ; type: functional, organism-based; settings: dose 10-20 mg/kg, time 60.0 day
# TZM-resistant GBM cell [5] = experiment: Suppression of DNA replication in patient-derived human TMZ-resistant GBM cells by GSEA analysis; type: functional, cell-based
# TMZ-resistant CT-2A cell [6] = experiment: Antitumor activity against mouse CT-2A cells implanted in C57BL/6 mouse assessed as tumor growth inhibition at 10 mg/kg, ip measured for 10 to 17 days by IVIS analysis; type: functional, organism-based; settings: time 10-17 day
# [7] = Drug uptake in C57BL/6 mouse plasma at 360 mg/kg, ip measured after 30 mins by UPLC analysis; type: ADME, organism-based; settings: in vivo, 0.5 h
# [8] = molecular target: T1, Histone deacetylase (Homo sapiens) (UniProt Q13547+O15379+Q9UBN7+Q92769+Q9UQL6+Q8WUI4+Q9BY41+Q96DB2+P56524+Q9UKV0+Q969S8); experiment: Inhibition of HDAC in human U-87 MG cells assessed as increase in acetyl histone H3 at K5 sites at 10 uM incubated for 1 hr by Western blot analysis; type: cell-based
# [9] = molecular target: T1, Histone deacetylase (Homo sapiens); experiment: Inhibition of HDAC in human U-87 MG cells assessed as increase in acetyl histone H3 at K18 sites at 10 uM incubated for 1 hr by Western blot analysis; type: cell-based
# TZM-resistant GBM cell [10] = experiment: Effect on cellular proliferation dynamics in patient-derived human TMZ-resistant GBM cells at 10 uM incubated for 72 hrs by RNA-seq analysis; type: functional, cell-based
# [11] = molecular target: T1, Histone deacetylase (Homo sapiens); experiment: Inhibition of HDAC in human U-87 MG cells assessed as increase in acetyl histone H3 at K14 sites at 10 uM incubated for 1 hr by Western blot analysis; type: cell-based
# TZM-resistant GBM cell [12] = experiment: Disruption of DNA repair in patient-derived human TMZ-resistant GBM cells assessed as decrease in RAD51 level at 40 uM upto 80 hrs by Western blot analysis; type: functional, cell-based
# TZM-resistant GBM cell [13] = experiment: Disruption of DNA repair in patient-derived human TMZ-resistant GBM cells assessed as decrease in CtIP level at 40 uM upto 80 hrs by Western blot analysis; type: functional, cell-based
# TZM-resistant GBM cell [14] = experiment: Induction of cell cycle arrest in patient-derived human TMZ-resistant GBM cells assessed as accumulation of cells at G2/M phase at 1 to 20 uM; type: functional, cell-based; settings: dose 1-20 µM
# TZM-resistant GBM cell [15] = experiment: Induction of cell cycle arrest in patient-derived human TMZ-resistant GBM cells assessed as decrease in accumulation of cells at G0/G1 phase at 1 to 20 uM; type: functional, cell-based; settings: dose 1-20 µM
# TZM-resistant GBM cell [16] = experiment: Disruption of DNA repair in patient-derived human TMZ-resistant GBM cells assessed as decrease in CtIP level upto 80 uM incubated for 72 hrs by Western blot analysis; type: functional, cell-based
# [17] = molecular target: T1, Histone deacetylase (Homo sapiens); experiment: Inhibition of HDAC in human U-87 MG cells assessed as increase in acetyl histone H3 at K9 sites at 10 uM incubated for 1 hr by Western blot analysis; type: cell-based
# TMZ-resistant CT-2A cell [18] = experiment: Antitumor activity against mouse TMZ-resistant CT-2A cells implanted in C57BL/6 mouse assessed as tumor growth inhibition at 50 mg/kg, po measured for 17 to 25 days by IVIS analysis; type: functional, organism-based; settings: time 17-25 day
# U-87 MG [19] = experiment: Disruption of DNA homologous recombination repair in human U-87 MG cells assessed as HR repaired cells at 2.5 uM incubated for 48 hrs by flow cytometry relative to control; type: functional, U-87MG ATCC
# [20] = molecular target: T1, Histone deacetylase (Homo sapiens); experiment: Inhibition of HDAC in human U-87 MG cells assessed as increase in acetyl histone H3 at K16 sites at 10 uM incubated for 1 hr by Western blot analysis; type: cell-based
# [21] = molecular target: T1, Histone deacetylase (Homo sapiens); experiment: Inhibition of HDAC in human U-87 MG cells assessed as increase in acetyl histone H3 at K27 sites at 10 uM incubated for 1 hr by Western blot analysis; type: cell-based
# Mus musculus = experiment: In vivo antitumor activity against patient-derived human TMZ-resistant GBM cells implanted in C57BL/6 mouse assessed as increase in animal survival at 10 to 20 mg/kg administered on every 3 days measured for 60 days in presence of TMZ; type: functional, organism-based; settings: dose 10-20 mg/kg, time 60.0 day
# TZM-resistant GBM cell [22] = experiment: Disruption of DNA repair in patient-derived human TMZ-resistant GBM cells assessed as decrease in RAD51 level upto 80 uM incubated for 72 hrs by Western blot analysis; type: functional, cell-based
# TZM-resistant GBM cell [23] = experiment: Disruption of DNA repair in patient-derived human TMZ-resistant GBM cells assessed as increase in ATM phosphorylation upto 80 uM incubated for 72 hrs by Western blot analysis; type: functional, cell-based
# TZM-resistant GBM cell [24] = experiment: Induction of RAD51 degradation in human TMZ-resistant GBM cells assessed increase in RAD51 ubiquitination upto 20 uM incubated for 24 hrs by Western blot analysis; type: cell-based
# [25] = molecular target: T1, Histone deacetylase (Homo sapiens); experiment: Inhibition of HDAC in human U-87 MG cells assessed as increase in acetyl histone H3 at K56 sites at 10 uM incubated for 1 hr by Western blot analysis; type: cell-based
# [26] = molecular target: T1, Histone deacetylase (Homo sapiens); experiment: Inhibition of HDAC in human U-87 MG cells assessed as increase in acetyl histone H3 at K4 sites at 10 uM incubated for 1 hr by Western blot analysis; type: cell-based
# TZM-resistant GBM cell [27] = experiment: Suppression of mitotic nuclear division in patient-derived human TMZ-resistant GBM cells by GSEA analysis; type: functional, cell-based
# U-87 MG [28] = experiment: Disruption of DNA homologous recombination repair in human U-87 MG cells assessed as HR repaired cells at 5 uM incubated for 48 hrs by flow cytometry relative to control; type: functional, U-87MG ATCC
# [29] = molecular target: T1, Histone deacetylase (Homo sapiens); experiment: Inhibition of HDAC in human U-87 MG cells assessed as increase in acetyl histone H3 at K8 sites at 10 uM incubated for 1 hr by Western blot analysis; type: cell-based
# TZM-resistant GBM cell [30] = experiment: Disruption of DNA repair in patient-derived human TMZ-resistant GBM cells assessed as decrease in RPA32 level upto 80 uM incubated for 72 hrs by Western blot analysis; type: functional, cell-based
compound,measurement,setting,value
C[C@@H]1C[C@@H]([C@H](O)CC2CC(=O)NC(=O)C2)C(=O)[C@@H](C)C1,Activity,TZM-resistant GBM cell [1],Active; Less Pronounced Effect Observed
same,Activity,TZM-resistant GBM cell [2],Active; Less Pronounced Effect Observed
O=C(/C=C/c1ccc(CNC[C@H]2CN(c3ccc(N4CCOCC4)c(F)c3)C(=O)O2)cc1)NO,Drug uptake,[3],Active
same,inhibition,TZM-resistant GBM cell [4],Active
same,Activity,TZM-resistant GBM cell [5],Active
same,inhibition,TMZ-resistant CT-2A cell [6],Active
same,Drug uptake,[7],Active
same,inhibition,[8],Active
same,inhibition,[9],Active
same,Activity,TZM-resistant GBM cell [10],Active
same,inhibition,[11],Active
same,Activity,TZM-resistant GBM cell [12],Active; Rapid And Significant Decrease In Expression Observed Over Time
same,Activity,TZM-resistant GBM cell [13],Active; Rapid And Significant Decrease In Expression Observed Over Time
same,Activity,TZM-resistant GBM cell [14],Active
same,Activity,TZM-resistant GBM cell [15],Active
same,Activity,TZM-resistant GBM cell [16],Active
same,inhibition,[17],Active
same,inhibition,TMZ-resistant CT-2A cell [18],Active
same,Activity,U-87 MG [19],11.4%
same,inhibition,[20],Active
same,inhibition,[21],Active
same,Activity,Mus musculus,Active
same,Activity,TZM-resistant GBM cell [22],Active
same,Activity,TZM-resistant GBM cell [23],Active; Result Suggests Activation Of Physiological Response To Dsbs Induced By Compound
same,Activity,TZM-resistant GBM cell [24],Active
same,inhibition,[25],Active
same,inhibition,[26],Active
same,Activity,TZM-resistant GBM cell [27],Active
same,Activity,U-87 MG [28],5.06%
same,inhibition,[29],Active
same,Activity,TZM-resistant GBM cell [30],Active

# Source: ChEMBL document CHEMBL6096725, “Repurposing Linezolid in Conjunction with Histone Deacetylase Inhibitor Access in the Realm of Glioblastoma Therapies” (J Med Chem, 2025)
